Where two headings read alike, the source gives them in different places.
Tested on: NCI 60 cancer cell lines
Test: NCI anticancer screening over a panel of 60 cancer cells, single concentration 10 µM
Assay type: cell-based, human
Conditions: Homo sapiens, read-out: % Growth Inhibition (GI %)
Outline: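 Primary single-dose screen at 10 µM over the NCI panel of 60 human tumour cell lines (leukemia, CNS, lung, colon, kidney, ovary, breast, prostate). The standard NCI Developmental Therapeutics Program protocol was used.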

[1] = A549, Non-small cell lung cancer A549/ATCC, 10 μM
[2] = BT-549, Breast cancer BT-549, 10 μM
[3] = CAKI-1, Renal cancer CAKI-1, 10 μM
[4] = CCRF-CEM, Leukemia CCRF-CEM, 10 μM
[5] = COLO 205, Colon cancer COLO 205, 10 μM
[6] = DU-145, Prostate cancer DU-145, 10 μM
[7] = HCC 2998, Colon cancer HCC-2998, 10 μM
[8] = HCT-15, Colon cancer HCT-15, 10 μM
[9] = HCT-116, Colon cancer HCT-116, 10 μM
[10] = HOP-62, Non-small cell lung cancer HOP-62, 10 μM
[11] = HOP-92, Non-small cell lung cancer HOP-92, 10 μM
[12] = HT-29, Colon cancer HT29, 10 μM
[13] = Hs-578T, Breast cancer HS 578T, 10 μM
[14] = IGROV-1, Ovarian cancer IGROV1, 10 μM
[15] = LOX IMVI, Melanoma LOX IMVI, 10 μM
[16] = MCF7, Breast cancer MCF7, 10 μM
[17] = MDA-MB-231, Breast cancer MDA-MB-231/ATCC, 10 μM
[18] = MDA-MB-435, Melanoma MDA-MB-435, 10 μM
[19] = MDA-MB-468, Breast cancer MDA-MB-468, 10 μM
[20] = NCI-H23, Non-small cell lung cancer NCI-H23, 10 μM
[21] = NCI-H226, Non-small cell lung cancer NCI-H226, 10 μM
[22] = NCI-H322M, Non-small cell lung cancer NCI-H322M, 10 μM
[23] = NCI-H460, Non-small cell lung cancer NCI-H460, 10 μM
[24] = NCI-H522, Non-small cell lung cancer NCI-H522, 10 μM
[25] = NCI/ADR-RES, Ovarian cancer NCI/ADR-RES, 10 μM
[26] = OVCAR-4, Ovarian cancer OVCAR-4, 10 μM
[27] = OVCAR-5, Ovarian cancer OVCAR-5, 10 μM
[28] = RPMI-8226, Leukemia RPMI-8226, 10 μM
[29] = RXF 393, Renal cancer RXF 393, 10 μM
[30] = SF-268, CNS Cancer SF-268, 10 μM
[31] = SF-295, CNS Cancer SF-295, 10 μM
[32] = SF-539, CNS Cancer SF-539, 10 μM
[33] = SK-MEL-2, Melanoma SK-MEL-2, 10 μM
[34] = SK-MEL-5, Melanoma SK-MEL-5, 10 μM
[35] = SK-MEL-28, Melanoma SK-MEL-28, 10 μM
[36] = SK-OV-3, Ovarian cancer SK-OV-3, 10 μM
[37] = SN12C, Renal cancer SN12C, 10 μM
[38] = SNB-19, CNS Cancer SNB-19, 10 μM
[39] = SNB-75, CNS Cancer SNB-75, 10 μM
[40] = SW-620, Colon cancer SW-620, 10 μM
[41] = T47D, Breast cancer T-47D, 10 μM
[42] = TK-10, Renal cancer TK-10, 10 μM
[43] = UACC-62, Melanoma UACC-62, 10 μM
[44] = UACC-257, Melanoma UACC-257, 10 μM
[45] = UO-31, Renal cancer UO-31, 10 μM

In the case of `C/C(=N\Nc1ccc(S(N)(=O)=O)cc1)c1cnn(-c2cc(=O)[nH]c3ccccc23)c1C` [Compound 4a, (E)-4-(2-(1-(5-methyl-1-(2-oxo-1,2-dihydroquinolin-4-yl)-1H-pyrazol-4-yl)ethylidene) hydrazineyl)benzenesulfonamide], the inhibition at 10 µM (786-0, Renal cancer 786-0, 10 μM) is reported as 11.6%, the inhibition at 10 µM [1] is reported as less than 5% and the inhibition at 10 µM (ACHN, Renal cancer ACHN, 10 μM) is reported as less than 5%. For the same compound, the inhibition at 10 µM [2] was 34.3%, the inhibition at 10 µM [3] was 5.51% and the inhibition at 10 µM [4] was 7.82%. For the same compound, the inhibition at 10 µM [5] was less than 5%, the inhibition at 10 µM [6] was less than 5% and the inhibition at 10 µM [7] was less than 5%. The inhibition at 10 µM [8] was less than 5%, the inhibition at 10 µM [9] was less than 5% and the inhibition at 10 µM (HL-60, Leukemia HL-60(TB), 10 μM) was less than 5%. The inhibition at 10 µM [10] was 7.49%, the inhibition at 10 µM [11] was less than 5% and the inhibition at 10 µM [12] was less than 5%. For the same compound, the inhibition at 10 µM [13] was 19.4%, the inhibition at 10 µM [14] was less than 5% and the inhibition at 10 µM (K562, Leukemia K-562, 10 μM) was less than 5%. It also gave an inhibition at 10 µM (KM12, Colon cancer KM12, 10 μM) of less than 5%, an inhibition at 10 µM [15] of 5.22% and an inhibition at 10 µM (Leukemia SR, 10 μM) of 12.7%. For the same compound, the inhibition at 10 µM [16] was 13.9%, the inhibition at 10 µM [17] was 17.7% and the inhibition at 10 µM [18] was less than 5%. It also gave an inhibition at 10 µM [19] of 24.8%, an inhibition at 10 µM (MOLT-4, Leukemia MOLT-4, 10 μM) of less than 5% and an inhibition at 10 µM (Melanoma MALM-3M, 10 μM) of 30.1%. It also gave an inhibition at 10 µM [20] of less than 5%, an inhibition at 10 µM [21] of 14.7% and an inhibition at 10 µM [22] of 6.78%. For the same compound, the inhibition at 10 µM [23] was less than 5%, the inhibition at 10 µM [24] was 18.9% and the inhibition at 10 µM [25] was less than 5%. It also gave an inhibition at 10 µM [26] of 11.4%, an inhibition at 10 µM [27] of less than 5% and an inhibition at 10 µM (OVCAR-8, Ovarian cancer OVCAR-8, 10 μM) of less than 5%. It also gave an inhibition at 10 µM (Prostate cancer PC-3, 10 μM) of 8.46%, an inhibition at 10 µM [28] of 11.2% and an inhibition at 10 µM [29] of less than 5%. The inhibition at 10 µM [30] was 14%, the inhibition at 10 µM [31] was 5.93% and the inhibition at 10 µM [32] was 8.96%. For the same compound, the inhibition at 10 µM [33] was 12%, the inhibition at 10 µM [34] was 8.23% and the inhibition at 10 µM [35] was 6.43%. It also gave an inhibition at 10 µM [36] of less than 5%, an inhibition at 10 µM [37] of less than 5% and an inhibition at 10 µM [38] of 9.13%. It also gave an inhibition at 10 µM [39] of 10.1%, an inhibition at 10 µM [40] of less than 5% and an inhibition at 10 µM [41] of 24.7%. It also gave an inhibition at 10 µM [42] of less than 5%, an inhibition at 10 µM (U-251, CNS Cancer U251, 10 μM) of 7.57% and an inhibition at 10 µM [43] of 8.54%. It also gave an inhibition at 10 µM [44] of less than 5% and an inhibition at 10 µM [45] of 22.6%.

In the case of `C/C(=N\Nc1ccc(S(N)(=O)=O)cc1)c1cnn(-c2cc(=O)[nH]c3ccc(C)cc23)c1C` [Compound 4b, (E)-4-(2-(1-(5-methyl-1-(6-methyl-2-oxo-1,2-dihydroquinolin-4-yl)-1H-pyrazol-4-yl)ethylidene)hydrazineyl)benzenesulfonamide], the inhibition at 10 µM (A498, Renal cancer A498, 10 μM) is reported as 5.79%, the inhibition at 10 µM [1] is reported as less than 5% and the inhibition at 10 µM (ACHN, Renal cancer ACHN, 10 μM) is reported as less than 5%. The inhibition at 10 µM [2] was less than 5%, the inhibition at 10 µM [3] was 5.35% and the inhibition at 10 µM [4] was 16%. It also gave an inhibition at 10 µM [5] of less than 5%, an inhibition at 10 µM [6] of less than 5% and an inhibition at 10 µM (EKVX, Non-small cell lung cancer EKVX, 10 μM) of less than 5%. It also gave an inhibition at 10 µM [7] of less than 5%, an inhibition at 10 µM [8] of less than 5% and an inhibition at 10 µM [9] of less than 5%. For the same compound, the inhibition at 10 µM [10] was 9.34%, the inhibition at 10 µM [11] was less than 5% and the inhibition at 10 µM [12] was less than 5%. For the same compound, the inhibition at 10 µM [13] was 14.4%, the inhibition at 10 µM [14] was less than 5% and the inhibition at 10 µM (K562, Leukemia K-562, 10 μM) was 9.72%. It also gave an inhibition at 10 µM [15] of 13%, an inhibition at 10 µM (Leukemia SR, 10 μM) of 40.3% and an inhibition at 10 µM [16] of 16.1%. It also gave an inhibition at 10 µM [17] of 18.8%, an inhibition at 10 µM [18] of 8.01% and an inhibition at 10 µM [19] of 41.7%. The inhibition at 10 µM (MOLT-4, Leukemia MOLT-4, 10 μM) was 16.1%, the inhibition at 10 µM (Melanoma M14, 10 μM) was less than 5% and the inhibition at 10 µM (Melanoma MALM-3M, 10 μM) was 16.4%. For the same compound, the inhibition at 10 µM [20] was less than 5%, the inhibition at 10 µM [21] was 15.9% and the inhibition at 10 µM [22] was less than 5%. It also gave an inhibition at 10 µM [23] of less than 5%, an inhibition at 10 µM [24] of 27.9% and an inhibition at 10 µM [25] of less than 5%. For the same compound, the inhibition at 10 µM [26] was 11.4%, the inhibition at 10 µM [27] was less than 5% and the inhibition at 10 µM (Prostate cancer PC-3, 10 μM) was 9.56%. The inhibition at 10 µM [28] was less than 5%, the inhibition at 10 µM [29] was 9.76% and the inhibition at 10 µM [30] was 13.3%. For the same compound, the inhibition at 10 µM [31] was 11.1%, the inhibition at 10 µM [32] was 16.9% and the inhibition at 10 µM [33] was 7.35%. For the same compound, the inhibition at 10 µM [34] was 9.87%, the inhibition at 10 µM [35] was less than 5% and the inhibition at 10 µM [36] was less than 5%. The inhibition at 10 µM [37] was 5.72%, the inhibition at 10 µM [38] was 12.6% and the inhibition at 10 µM [39] was 12.2%. For the same compound, the inhibition at 10 µM [40] was less than 5%, the inhibition at 10 µM [41] was 27.3% and the inhibition at 10 µM [42] was less than 5%. The inhibition at 10 µM (U-251, CNS Cancer U251, 10 μM) was 13%, the inhibition at 10 µM [43] was 19.2% and the inhibition at 10 µM [44] was less than 5%. For the same compound, the inhibition at 10 µM [45] was 11.7%.

From PMC12638379, “An innovative approach to development of new pyrazolylquinolin-2-one hybrids as dual EGFR and BRAF^V600E inhibitors” (Molecular Diversity, 2025)
